From US20030129629A1, “Methods and compositions for the identification, assessment, prevention, and therapy of human cancers” (Millennium Pharmaceuticals, Inc., priority 2000, published 2003)
Where two headings read alike, the source gives them in different places.

Tests used:
[1] = system: 60 cancer cell lines (NCI 60 cancer cell line series); settings: cited from earlier work
[2] = system: 60 cancer cell lines (NCI 60 cancer cell line series); test: NCI-DTP in vitro cancer screen, sulforhodamine B (SRB) growth inhibition, 48 hour exposure; assay type: cell-based, human
Outline: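 Potency is given as mean −log{GI50} from dose–response curves, manually binned into Low, Medium or High sensitivity. Sixty NCI-DTP tumour lines were treated 48 h with a duplicate, five-dose, ten-fold dilution series, and growth read by SRB staining of cell mass.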

COc1cccc2c1C(=O)c1c(O)c3c(c(O)c1C2=O)C[C@@](O)(C(=O)CO)C[C@@H]3O[C@H]1C[C@H](N)[C@H](O)[C@H](C)O1 [Adriamycin]
−Log (GI50) ([1]; Melanoma SK-MEL-2 CL10005): 6.6
−Log (GI50) ([1]; Melanoma SK-MEL-28 CL10008): 6.5
−Log (GI50) ([1]; NSCLC NCI-H226 CL1013): 7.2
classification of cell line as Low(1), Medium(2), High(3) sensitivity to compound ([2]; Breast BT-549 CL5013): 2
classification of cell line as Low(1), Medium(2), High(3) sensitivity to compound ([2]; Breast HS-578T CL5006): 2
classification of cell line as Low(1), Medium(2), High(3) sensitivity to compound ([2]; Breast MCF7(I) CL5001): 3
classification of cell line as Low(1), Medium(2), High(3) sensitivity to compound ([2]; Breast MCF7/ADRr CL5002): 1
classification of cell line as Low(1), Medium(2), High(3) sensitivity to compound ([2]; Breast MDA-MB-231 CL5005): 2
classification of cell line as Low(1), Medium(2), High(3) sensitivity to compound ([2]; Breast MDA-MB-435 CL5011): 2
classification of cell line as Low(1), Medium(2), High(3) sensitivity to compound ([2]; Breast MDA-N CL5012): 2
classification of cell line as Low(1), Medium(2), High(3) sensitivity to compound ([2]; Breast T-47D CL5014): 2
classification of cell line as Low(1), Medium(2), High(3) sensitivity to compound ([2]; CNS SF-268 CL12014): 2
classification of cell line as Low(1), Medium(2), High(3) sensitivity to compound ([2]; CNS SF-295 CL12015): 2
classification of cell line as Low(1), Medium(2), High(3) sensitivity to compound ([2]; CNS SF-539 CL12016): 2
classification of cell line as Low(1), Medium(2), High(3) sensitivity to compound ([2]; CNS SNB-19 CL12002): 2
classification of cell line as Low(1), Medium(2), High(3) sensitivity to compound ([2]; CNS SNB-75(I) CL12005): 2
classification of cell line as Low(1), Medium(2), High(3) sensitivity to compound ([2]; CNS U251(I) CL12009): 2
classification of cell line as Low(1), Medium(2), High(3) sensitivity to compound ([2]; Colon COLO-250 CL4010): 2
classification of cell line as Low(1), Medium(2), High(3) sensitivity to compound ([2]; Colon HCC-2998 CL4002): 2
classification of cell line as Low(1), Medium(2), High(3) sensitivity to compound ([2]; Colon HCT-15 CL4015): 1
classification of cell line as Low(1), Medium(2), High(3) sensitivity to compound ([2]; Colon HCT-116 CL4003): 2
classification of cell line as Low(1), Medium(2), High(3) sensitivity to compound ([2]; Colon HT29(I) CL4001): 2
classification of cell line as Low(1), Medium(2), High(3) sensitivity to compound ([2]; Colon KM12 CL4017): 2
classification of cell line as Low(1), Medium(2), High(3) sensitivity to compound ([2]; Colon SW-620 CL4009): 2
classification of cell line as Low(1), Medium(2), High(3) sensitivity to compound ([2]; Leukemia CCRF-CEM(I) CL7003): 3
classification of cell line as Low(1), Medium(2), High(3) sensitivity to compound ([2]; Leukemia HL-60(I) CL7008): 2
classification of cell line as Low(1), Medium(2), High(3) sensitivity to compound ([2]; Leukemia K562(I) CL7005): 2
classification of cell line as Low(1), Medium(2), High(3) sensitivity to compound ([2]; Leukemia MOLT-4 CL7006): 3
classification of cell line as Low(1), Medium(2), High(3) sensitivity to compound ([2]; Leukemia RPMI-8226(I) CL7010): 2
classification of cell line as Low(1), Medium(2), High(3) sensitivity to compound ([2]; Leukemia SR CL7019): 3
classification of cell line as Low(1), Medium(2), High(3) sensitivity to compound ([2]; Melanoma LOX IMVI CL10001): 2
classification of cell line as Low(1), Medium(2), High(3) sensitivity to compound ([2]; Melanoma M14 CL10014): 2
classification of cell line as Low(1), Medium(2), High(3) sensitivity to compound ([2]; Melanoma MALME-3M CL10002): 2
classification of cell line as Low(1), Medium(2), High(3) sensitivity to compound ([2]; Melanoma SK-MEL-2 CL10005): 2
classification of cell line as Low(1), Medium(2), High(3) sensitivity to compound ([2]; Melanoma SK-MEL-28 CL10008): 2
sensitivity classification Low(1)/Medium(2)/High(3) ([2]; NSCLC NCI-H23(I) CL1001): 2
sensitivity classification Low(1)/Medium(2)/High(3) ([2]; NSCLC NCI-H332M CL1017): 1
sensitivity classification Low(1)/Medium(2)/High(3) ([2]; NSCLC NCI-H460 CL1021): 3
sensitivity classification Low(1)/Medium(2)/High(3) ([2]; NSCLC NCI-H522 CL1003): 2
sensitivity classification Low(1)/Medium(2)/High(3) ([2]; Ovarian IGROV1 CL6010): 2
sensitivity classification Low(1)/Medium(2)/High(3) ([2]; Ovarian OVCAR-3 CL6001): 2
sensitivity classification Low(1)/Medium(2)/High(3) ([2]; Ovarian OVCAR-4 CL6002): 1
sensitivity classification Low(1)/Medium(2)/High(3) ([2]; Ovarian OVCAR-5 CL6003): 1
sensitivity classification Low(1)/Medium(2)/High(3) ([2]; Ovarian OVCAR-8 CL6005): 2
sensitivity classification Low(1)/Medium(2)/High(3) ([2]; Ovarian SK-OV-3 CL6011): 2
sensitivity classification Low(1)/Medium(2)/High(3) ([2]; Prostate DU-145 CL11003): 2
sensitivity classification Low(1)/Medium(2)/High(3) ([2]; Prostate PC-3(I) CL11001): 2
sensitivity classification Low(1)/Medium(2)/High(3) ([2]; Renal 786-0 CL9018): 2
sensitivity classification Low(1)/Medium(2)/High(3) ([2]; Renal A498 CL9013): 2
sensitivity classification Low(1)/Medium(2)/High(3) ([2]; Renal ACHN CL9023): 2
sensitivity classification Low(1)/Medium(2)/High(3) ([2]; Renal CAKI-1 CL9015): 2
sensitivity classification Low(1)/Medium(2)/High(3) ([2]; Renal RXF-393 CL9016): 2
sensitivity classification Low(1)/Medium(2)/High(3) ([2]; Renal SN12C CL9008): 2
sensitivity classification Low(1)/Medium(2)/High(3) ([2]; Renal TK10 CL9024): 2
sensitivity classification Low(1)/Medium(2)/High(3) ([2]; Renal UO-31 CL9004): 1
